Data from patent publication US20080107603A1, “Neuroprotectant methods, compositions, and screening methods thereof” (priority 2002, published 2008).
Read-outs that look alike come from different tables or passages of the source.

Assays:
[1] = tested on: retinal neurons in the retinal ganglion cell layer; test: NMDA retinal model (intravitreal NMDA, cell counts in retinal wholemounts); format: in vivo, Sprague-Dawley rats
Procedure: Young adult female Sprague-Dawley rats were used in the present experiments. The animals were supplied by Harlan, England and maintained in the Comparative Biology Unit at Charing Cross Hospital Campus, Imperial College. Animal procedures used were in accordance to regulations of Home Office, UK. The animals were divided into four groups. The first group consists of 6 normal rats that received no treatment. A further 9 animals were anesthetized with. Hypnorm™ (0.02 mg of fentanyl citrate and 0.54 mg fluanisone/100 g body weight) and Hypnovel™ (0.27 mg midazolam/100 g body weight) before they received unilateral intravitreal injection of 5 μl of 4 mM NMDA to the vitreous body of the left eyes, with the uninjected right eyes served as controls. Six of the experimental animals injected with NMDA received an additional intraperitoneal injection of L-ergothioneine 0.2 ml of 70 mg/ml (n=3), or phosphate buffer saline (PBS) as vehicle control 24 h and 30 min before injection of NMDA.
Further intraperitoneal injection of L-ergothioneine, or PBS was performed at 1 h, 24 h, 48 h and 72 h time points, and 3 injections per week for another three weeks. Six weeks after injection of NMDA, all animals were anaesthetized deeply again and perfused with physiological saline followed by 4% paraformaldehyde in phosphate buffer (pH 7.4). The eyeballs were collected in the same fixative and post-fixed for another half an hour before the retinas were dissected out in PBS. For each retina, four radial cuts were made before the retinas were flatly mounted onto gelatin-coated slides, and air-dried slowly in a moist chamber for 2-3 days.
The retinal whole-mounts were then stained for cresyl violet and cover slipped. Analysis was performed under a Wild microscope equipped with a camera lucida drawing tube. The number of retinal neurons in the retinal ganglion cell layer was counted and cell sizes measured at a magnification of 300× and in an area of 150×150 μm in the central, intermediate and peripheral parts of the four retinal quadrants. The neurons counted were divided into two groups with somata smaller than 6 μm, or equal to or larger than 6 μm in diameter. The majority of larger neurons are retinal ganglion cells while smaller somata are primarily non-ganglion cells or displaced amacrine cells (Perry (1981) Neuroscience 6:931-944). The numbers of cells were: counted in a total of 12 fields of individual retinas an analyzed statistically. The data is expressed as mean±S.E.M. Differences between values were compared by one-way analysis of variance (ANOVA).

PC12 cells [2] = test: TUNEL, Aβ25-35-induced apoptosis; format: cell-based, Rat; conditions: 25 μM Aβ25-35, 36 h; EGT at 0.5 mM or 1 mM
Procedure: The commercially available in situ death detection kit (Boehringer Mannheim product, Manheim, Germany) was utilized to detect DNA fragmentation. The PC12 cells (5×10^5 cells/1.5 ml in chamber slide) were fixed for 30 min in 10% neutral buffered-formalin solution at room temperature. Endogenous peroxidase was inactivated by incubation with 0.3% (v/v) hydrogen peroxide in methanol for 30 min at room temperature and further incubated in a permeabilizing solution (0.1% sodium citrate and 0.1% Triton X-100) for 2 min at 4° C. The cells were labeled by incubation with the TUNEL reaction mixture for 60 min at 37° C. followed by labeling with peroxidase-conjugated anti-fluorescein anti-goat antibody (Fab fragment) for additional 30 min. After staining with diaminobenzidine for 10 min, cells were rinsed with phosphate-buffered saline (PBS) and mounted with 50% glycerol.

Bax and Bcl-XL = test: Western blot, levels of Bax and Bcl-XL; format: cell-based, Rat; conditions: 25 μM Aβ25-35, 36 h
Procedure: After treatment, cells (1×10^7 cells/7 ml in 100φ dish) were collected and washed with PBS. After centrifugation, cell lysis was carried out at 4° C. by vigorous shaking for 15 min in RIPA buffer (150 mM NaCl, 1% NP-40, 0.5% sodium deoxycholate, 0.1% SDS, 50 mM Tris-HCl (pH 7.4), 50 mM glycerphosphate, 20 mM NaF, 20 mM EGTA, 1 mM DTT, 1 mM Na3VO4 and protease inhibitors). After centrifugation at 15,000 rpm for 15 min, supernatant was separated and stored at −70° C. until use. The protein concentration was determined by using the bicinchrinic acid (BCA) protein assay kit (Pierce, Rockford, Ill., USA). After addition of sample loading buffer, protein samples were electrophoresed on a 12.5% SDS-polyacrylamide gel. Proteins were transferred to polyvinylidene difluoride blots at 300 mA for 3 h. The blots were blocked for 1 h at room temperature in fresh blocking buffer (0.1% Tween-20 in Tris-buffered saline, pH 7.4 containing 5% non-fat dried milk). Dilutions (1:1000) of primary anti-poly(ADP-ribose)polymerase (PARP), anti-Bcl-XL and anti-Bax antibodies were made in PBS with 3% non-fat dry milk. Following three washes with PBST (PBS and 0.1% Tween-20), the blots were incubated with horseradish peroxidase-conjugated secondary antibodies in PBS with 3% non-fat dry milk for 1 h at room temperature. […]

PC12 cells [3] = test: Cell death induced by the NO releasing compound SNP (MTT); format: cell-based, Rat; conditions: MTT reduction assay
Procedure: The MTT assay is a sensitive measurement of the normal metabolic status of cells, particularly that of mitochondria, which reflects early cellular redox changes. After incubation, cells were treated with the MTT solution (final concentration, 1 mg/ml) for 2 h. The dark blue formazan crystals formed in intact cells were dissolved in DMSO, and absorbance at 570 nm was measured with a microplate reader. Results were expressed as the percentage (%) of MTT reduction, assuming that the absorbance of control cells was 100%.

p65 = test: Immunocytochemistry, nuclear translocation of p65; format: cell-based, Rat; conditions: Aβ25-35 for 1 h
[4] = Cat; cited from earlier work
[5] = Fowl; cited from earlier work
[6] = NMDA-injected retina, L-ergothioneine i.p. 0.2 ml of 70 mg/ml, 6 weeks after NMDA
[7] = uninjected control eyes of L-ergothioneine treated animals

C[N+](C)(C)[C@@H](Cc1c[nH]c(=S)[nH]1)C(=O)[O-] [L-ergothioneine, 2-mercaptohistidine trimethylbetaine]
neuroprotective effect ([1]; NMDA retinal model, versus PBS): significant neuroprotective effect | loss of ganglion cells [1, 6]: 44% | loss of small or non-ganglion cells [1, 6]: 31% | loss of ganglion cells [1, 7]: 7% | loss of non-ganglion cells [1, 7]: 4% | proportion of TUNEL-positive cells (PC12 cells [2]): lowered the proportion of TUNEL-positive cells | ratio of Bax to Bcl-XL (Bax and Bcl-XL): substantially reduced | cell death mediated by the NO donor SNP (PC12 cells [3]): failed to attenuate | Aβ25-35-induced nuclear translocation of p65 (p65): inhibitory effect | L-Ergothioneine Concentration (mg/100 ml blood) [4]: 0.5-2 mg/100 ml blood | L-Ergothioneine Concentration (mg/100 ml blood) [5]: 2-10 mg/100 ml blood
